Results reported in ChEMBL document CHEMBL1949641, “Anti-inflammatory mechanism of 15,16-epoxy-3α-hydroxylabda-8,13(16),14-trien-7-one via inhibition of LPS-induced multicellular signaling pathways” (J Nat Prod, 2012).
Activity calls are given as the source filed them. No cut-off for these calls is given here.

Columns and labels:
RAW264.7 [1] = assay: Cytotoxicity against mouse RAW264.7 cells assessed as cell viability up to 50 uM after 24 hrs by MTT assay; type: cell-based; details: raw264.7, 24 h
RAW264.7 [2] = assay: Inhibition of NF-kappaB transcriptional activity expressed in mouse RAW264.7 cells assessed as inhibition of LPS-induced secretory alkaline phosphatase expression at 50 uM treated 2 hrs before LPS challenge measured after 18 hrs; type: cell-based
RAW264.7 [3] = assay: Inhibition of LPS-induced NF-kappaB activation in mouse RAW264.7 cells assessed as inhibition p38alpha/beta phosphorylation at 50 uM treated 2 hrs before LPS challenge measured after 30 mins by Western blot analysis; type: cell-based
RAW264.7 [4] = assay: Inhibition of LPS-induced NF-kappaB activation in mouse RAW264.7 cells assessed as inhibition JNK phosphorylation at 50 uM treated 2 hrs before LPS challenge measured after 30 mins by Western blot analysis; type: cell-based
[5] = biological target: Transcription factor p65 (Mus musculus) (UniProt Q04207); assay: Inhibition of LPS-induced NF-kappaB p65 nuclear translocation in mouse RAW264.7 cells treated 2 hrs before LPS challenge measured up to 1 hr Western blot analysis; type: cell-based
RAW264.7 [6] = assay: Inhibition of NF-kappaB transcriptional activity expressed in mouse RAW264.7 cells assessed as inhibition of LPS-induced secretory alkaline phosphatase expression at 15 uM treated 2 hrs before LPS challenge measured after 18 hrs; type: cell-based
RAW264.7 [7] = assay: Antiinflammatory activity in mouse RAW264.7 cells assessed as inhibition of LPS-induced TNFalpha by ELISA; type: functional, cell-based
[8] = biological target: T1, Nuclear factor NF-kappa-B p105 subunit (Mus musculus) (UniProt P25799); assay: Inhibition of LPS-induced NF-kappaB p50 nuclear translocation in mouse RAW264.7 cells treated 2 hrs before LPS challenge measured up to 1 hr Western blot analysis; type: cell-based
T1 sequence (whole entry): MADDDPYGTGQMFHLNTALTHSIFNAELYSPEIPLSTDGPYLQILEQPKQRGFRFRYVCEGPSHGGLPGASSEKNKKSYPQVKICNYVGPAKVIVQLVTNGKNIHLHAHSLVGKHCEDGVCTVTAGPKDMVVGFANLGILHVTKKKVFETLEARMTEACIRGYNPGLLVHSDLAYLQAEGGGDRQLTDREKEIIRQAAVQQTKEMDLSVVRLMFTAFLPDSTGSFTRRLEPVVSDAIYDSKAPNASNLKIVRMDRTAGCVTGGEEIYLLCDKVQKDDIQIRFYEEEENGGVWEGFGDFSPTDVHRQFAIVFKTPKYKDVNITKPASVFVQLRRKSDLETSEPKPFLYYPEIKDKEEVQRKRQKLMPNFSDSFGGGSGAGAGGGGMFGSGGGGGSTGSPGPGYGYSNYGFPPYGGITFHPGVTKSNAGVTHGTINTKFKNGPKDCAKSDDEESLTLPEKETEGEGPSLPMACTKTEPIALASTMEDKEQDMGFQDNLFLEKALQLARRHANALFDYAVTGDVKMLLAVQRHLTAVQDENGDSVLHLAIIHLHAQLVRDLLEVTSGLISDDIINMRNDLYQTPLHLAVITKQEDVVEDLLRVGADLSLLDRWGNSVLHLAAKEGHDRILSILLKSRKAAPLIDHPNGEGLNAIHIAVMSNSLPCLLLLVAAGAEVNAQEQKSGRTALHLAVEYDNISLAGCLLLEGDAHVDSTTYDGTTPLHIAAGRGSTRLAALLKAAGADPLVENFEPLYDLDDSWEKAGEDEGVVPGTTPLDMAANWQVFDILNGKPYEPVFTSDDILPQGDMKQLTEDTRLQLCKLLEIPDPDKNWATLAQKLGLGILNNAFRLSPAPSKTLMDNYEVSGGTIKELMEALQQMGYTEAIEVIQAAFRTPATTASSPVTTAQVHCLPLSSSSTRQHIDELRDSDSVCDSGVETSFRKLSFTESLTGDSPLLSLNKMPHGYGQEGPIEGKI

RAW264.7 [9] = assay: Inhibition of NF-kappaB transcriptional activity expressed in mouse RAW264.7 cells assessed as inhibition of LPS-induced secretory alkaline phosphatase expression at 5 uM treated 2 hrs before LPS challenge measured after 18 hrs; type: cell-based
RAW264.7 [10] = assay: Inhibition of LPS-induced Akt phosphorylation in mouse RAW264.7 cells treated 2 hrs before LPS challenge measured after 15 to 30 mins by Western blot analysis; type: cell-based
RAW264.7 [11] = assay: Inhibition of NF-kappaB activation in mouse RAW264.7 cells assessed as inhibition of LPS-induced IkappaBalpha phosphorylation at 50 uM treated 2 hrs before LPS challenge measured after 15 to 20 mins by Western blotting; type: cell-based
RAW264.7 [12] = assay: Antiinflammatory activity in mouse RAW264.7 cells assessed as inhibition of LPS-induced nitric oxide production treated 2 hrs before LPS challenge measured after 18 hrs by Griess reaction method; type: functional, cell-based
RAW264.7 [13] = assay: Inhibition of LPS-induced NF-kappaB activation in mouse RAW264.7 cells assessed as inhibition ERK phosphorylation at 50 uM treated 2 hrs before LPS challenge measured after 10 to 30 mins by Western blot analysis; type: cell-based
RAW264.7 [14] = assay: Inhibition of NF-kappaB transcriptional activity expressed in mouse RAW264.7 cells assessed as inhibition of LPS-induced secretory alkaline phosphatase expression treated 2 hrs before LPS challenge measured after 18 hrs; type: cell-based
RAW264.7 [15] = assay: Antiinflammatory activity in mouse RAW264.7 cells assessed as inhibition of LPS-induced COX2 expression treated 2 hrs before LPS challenge measured after 18 hrs by Western blotting; type: functional, cell-based
RAW264.7 [16] = assay: Inhibition of NF-kappaB activation in mouse RAW264.7 cells assessed as protection of LPS-induced IkappaBalpha degradation at 50 uM treated 2 hrs before LPS challenge measured after 10 to 20 mins by Western blotting; type: cell-based
RAW264.7 [17] = assay: Inhibition of NF-kappaB transcriptional activity expressed in mouse RAW264.7 cells assessed as inhibition of LPS-induced secretory alkaline phosphatase expression at 25 uM treated 2 hrs before LPS challenge measured after 18 hrs; type: cell-based
RAW264.7 [18] = assay: Inhibition of LPS-induced NFkappaB/AP-1 DNA binding activity in mouse RAW264.7 cells treated 2 hrs before LPS challenge measured after 1 hr by electrophoretic mobility shift assay; type: cell-based
RAW264.7 [19] = assay: Antiinflammatory activity in mouse RAW264.7 cells assessed as inhibition of LPS-induced iNOS expression treated 2 hrs before LPS challenge measured after 18 hrs by Western blotting; type: functional, cell-based
RAW264.7 [20] = assay: Inhibition of NF-kappaB transcriptional activity expressed in mouse RAW264.7 cells assessed as inhibition of LPS-induced secretory alkaline phosphatase expression at 10 uM treated 2 hrs before LPS challenge measured after 18 hrs; type: cell-based

Sequence of Transcription factor p65 (Mus musculus) (Q04207 whole entry): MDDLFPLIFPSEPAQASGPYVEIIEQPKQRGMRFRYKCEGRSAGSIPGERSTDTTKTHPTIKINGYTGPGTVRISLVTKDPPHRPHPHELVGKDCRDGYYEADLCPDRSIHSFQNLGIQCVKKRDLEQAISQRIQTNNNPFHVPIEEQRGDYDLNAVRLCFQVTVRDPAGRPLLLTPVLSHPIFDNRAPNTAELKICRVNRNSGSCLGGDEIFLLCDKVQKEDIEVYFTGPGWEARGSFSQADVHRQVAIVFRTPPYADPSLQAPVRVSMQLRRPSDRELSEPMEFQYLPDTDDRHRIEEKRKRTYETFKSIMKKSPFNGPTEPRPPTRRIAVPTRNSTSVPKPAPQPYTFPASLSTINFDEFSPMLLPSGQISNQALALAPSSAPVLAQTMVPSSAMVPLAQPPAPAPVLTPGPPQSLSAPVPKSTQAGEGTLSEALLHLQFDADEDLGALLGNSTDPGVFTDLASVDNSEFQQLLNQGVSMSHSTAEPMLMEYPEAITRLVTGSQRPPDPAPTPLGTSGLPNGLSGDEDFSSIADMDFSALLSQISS

inhibition [5] | IC50 (RAW264.7 [7]) [µM] | inhibition [8] | IC50 (RAW264.7 [12]) [µM] | Structure (SMILES) | Activity (RAW264.7 [1]) | inhibition (RAW264.7 [2]) [%] | inhibition (RAW264.7 [3]) | inhibition (RAW264.7 [4]) | inhibition (RAW264.7 [6]) [%] | inhibition (RAW264.7 [9]) [%] | inhibition (RAW264.7 [10]) | inhibition (RAW264.7 [11]) | inhibition (RAW264.7 [13]) | inhibition (RAW264.7 [14]) | inhibition (RAW264.7 [15]) | Activity (RAW264.7 [16]) | inhibition (RAW264.7 [17]) [%] | inhibition (RAW264.7 [18]) | inhibition (RAW264.7 [19]) | inhibition (RAW264.7 [20])
Dose-dependent effect | 38.5 | Dose-dependent effect | 27 | CC1=C(CCc2ccoc2)[C@@]2(C)CC[C@@H](O)C(C)(C)[C@@H]2CC1=O | Non-toxic | 90.3 | Active | Active | 56.6 | 20.9 | Active | Active | Active | Dose-dependent effect | Dose-dependent effect | Active | 69.1 | Dose-dependent effect | Dose-dependent effect | –
– | – | – | – | Cc1ccc(S(=O)(=O)N[C@@H](Cc2ccccc2)C(=O)CCl)cc1 | – | – | – | – | – | – | – | – | – | – | – | – | – | – | – | Active
